Experimental data taken from US11331369B2, “Endoparasitic depsipeptides” (Zoetis Services LLC, priority 2017, dated 2022).

How the values were obtained:
[1] = system: microfilariae of Dirofilaria immitis; assay: Dirofilaria immitis, Microfilaria (DiMF) In vitro Assay; assay type: cell-based; conditions: 72 h, read-out: DiMF Minimum Effective Dose (MED), approximately 72 hours incubation, microfilariae assessed for survival or paralysis
[2] = system: third stage larvae of Haemonchus contortus; assay: Haemonchus contortus L3 (HcL3) Assay; assay type: cell-based; conditions: 96 h, read-out: HcL3 Minimum Effective Dose (MED)

Structure (SMILES)	minimal effective concentration [1] [µM]	minimal effective concentration [2] [µM]
COC(C)(C)Cc1ccnn1Cc1ccc(C[C@H]2OC(=O)[C@H](CC(C)C)N(C)C(=O)[C@@H](C)OC(=O)[C@H](CC(C)C)N(C)C(=O)[C@@H](Cc3ccc(Cn4nccc4CC(C)(C)OC)cc3)OC(=O)[C@H](CC(C)C)N(C)C(=O)[C@@H](C)OC(=O)[C@H](CC(C)C)N(C)C2=O)cc1 [Example 1b-214, (3S,6R,9S,12R,15S,18R,21S,24R)-3,9,15,21-tetraisobutyl-6,18-bis(4-((5-(2-methoxy-2-methylpropyl)-1H-pyrazol-1-yl)methyl)benzyl)-4,10,12,16,22,24-hexamethyl-1,7,13,19-tetraoxa-4,10,16,22-tetraazacyclotetracosan-2,5,8,11,14,17,20,23-octaone]	0.01 to 0.1	1 to 10
Cc1cnn(Cc2ccc(C[C@H]3OC(=O)[C@H](CC(C)C)N(C)C(=O)[C@@H](C)OC(=O)[C@H](CC(C)C)N(C)C(=O)[C@@H](Cc4ccccc4)OC(=O)[C@H](CC(C)C)N(C)C(=O)[C@@H](C)OC(=O)[C@H](CC(C)C)N(C)C3=O)cc2)c1 [Example 2-2, (3S,6R,9S,12R,15S,18R,21S,24R)-6-benzyl-3,9,15,21-tetraisobutyl-4,10,12,16,22,24-hexamethyl-18-[[4-[(4-methylpyrazol-1-yl)methyl]phenyl]methyl]-1,7,13,19-tetraoxa-4,10,16,22-tetrazacyclotetracosane-2,5,8,11,14,17,20,23-octaone]	0.001 to 0.01	1 to 10
Cc1cc(C)n(Cc2ccc(C[C@H]3OC(=O)[C@H](CC(C)C)N(C)C(=O)[C@@H](C)OC(=O)[C@H](CC(C)C)N(C)C(=O)[C@@H](Cc4ccccc4)OC(=O)[C@H](CC(C)C)N(C)C(=O)[C@@H](C)OC(=O)[C@H](CC(C)C)N(C)C3=O)cc2)n1 [Example 2-7, (3S,6R,9S,12R,15S,18R,21S,24R)-6-benzyl-18-[[4-[(3,5-dimethylpyrazol-1-yl)methyl]phenyl]methyl]-3,9,15,21-tetraisobutyl-4,10,12,16,22,24-hexamethyl-1,7,13,19-tetraoxa-4,10,16,22-tetrazacyclotetracosane-2,5,8,11,14,17,20,23-octaone]	0.001 to 0.01	1 to 10
CC(C)C[C@H]1C(=O)O[C@H](Cc2ccc(Cn3cc(CO)cn3)cc2)C(=O)N(C)[C@@H](CC(C)C)C(=O)O[C@H](C)C(=O)N(C)[C@@H](CC(C)C)C(=O)O[C@H](Cc2ccccc2)C(=O)N(C)[C@@H](CC(C)C)C(=O)O[C@H](C)C(=O)N1C [Example 2-19, (3S,6R,9S,12R,15S,18R,21S,24R)-6-benzyl-18-(4-((4-(hydroxymethyl)-1H-pyrazol-1-yl)methyl)benzyl)-3,9,15,21-tetraisobutyl-4,10,12,16,22,24-hexamethyl-1,7,13,19-tetraoxa-4,10,16,22-tetraazacyclotetracosan-2,5,8,11,14,17,20,23-octaone]	0.001 to 0.01	1 to 10
CC(C)C[C@H]1C(=O)O[C@H](Cc2ccc(Cn3cc(-c4ccncn4)cn3)cc2)C(=O)N(C)[C@@H](CC(C)C)C(=O)O[C@H](C)C(=O)N(C)[C@@H](CC(C)C)C(=O)O[C@H](Cc2ccccc2)C(=O)N(C)[C@@H](CC(C)C)C(=O)O[C@H](C)C(=O)N1C [Example 2-45, (3S,6R,9S,12R,15S,18R,21S,24R)-6-benzyl-3,9,15,21-tetraisobutyl-4,10,12,16,22,24-hexamethyl-18-(4-((4-(pyrimidin-4-yl)-1H-pyrazol-1-yl)methyl)benzyl)-1,7,13,19-tetraoxa-4,10,16,22-tetraazacyclotetracosan-2,5,8,11,14,17,20,23-octaone]	0.001 to 0.01	1 to 10
CC(C)C[C@H]1C(=O)O[C@H](Cc2ccc(Cn3nccc3C(C)(C)C)cc2)C(=O)N(C)[C@@H](CC(C)C)C(=O)O[C@H](C)C(=O)N(C)[C@@H](CC(C)C)C(=O)O[C@H](Cc2ccccc2)C(=O)N(C)[C@@H](CC(C)C)C(=O)O[C@H](C)C(=O)N1C [Example 2-68, (3S,6R,9S,12R,15S,18R,21S,24R)-6-benzyl-18-(4-((5-(tert-butyl)-1H-pyrazol-1-yl)methyl)benzyl)-3,9,15,21-tetraisobutyl-4,10,12,16,22,24-hexamethyl-1,7,13,19-tetraoxa-4,10,16,22-tetraazacyclotetracosan-2,5,8,11,14,17,20,23-octaone]	0.01 to 0.1	1 to 10
CC(C)C[C@H]1C(=O)O[C@H](Cc2ccc(Cn3ccc(C4CC4)n3)cc2)C(=O)N(C)[C@@H](CC(C)C)C(=O)O[C@H](C)C(=O)N(C)[C@@H](CC(C)C)C(=O)O[C@H](Cc2ccccc2)C(=O)N(C)[C@@H](CC(C)C)C(=O)O[C@H](C)C(=O)N1C [Example 2-74, (3S,6R,9S,12R,15S,18R,21S,24R)-6-benzyl-18-(4-((3-cyclopropyl-1H-pyrazol-1-yl)methyl)benzyl)-3,9,15,21-tetraisobutyl-4,10,12,16,22,24-hexamethyl-1,7,13,19-tetraoxa-4,10,16,22-tetraazacyclotetracosan-2,5,8,11,14,17,20,23-octaone]	0.001 to 0.01	1 to 10
Cc1nn(Cc2ccc(C[C@H]3OC(=O)[C@H](CC(C)C)N(C)C(=O)[C@@H](C)OC(=O)[C@H](CC(C)C)N(C)C(=O)[C@@H](Cc4ccccc4)OC(=O)[C@H](CC(C)C)N(C)C(=O)[C@@H](C)OC(=O)[C@H](CC(C)C)N(C)C3=O)cc2)c(C)c1F [Example 2-79, (3S,6R,9S,12R,15S,18R,21S,24R)-6-benzyl-18-(4-((4-fluoro-3,5-dimethyl-1H-pyrazol-1-yl)methyl)benzyl)-3,9,15,21-tetraisobutyl-4,10,12,16,22,24-hexamethyl-1,7,13,19-tetraoxa-4,10,16,22-tetraazacyclotetracosan-2,5,8,11,14,17,20,23-octaone]	0.01 to 0.1	1 to 10
CC(C)C[C@H]1C(=O)O[C@H](Cc2ccc(Cn3ccc(N)n3)cc2)C(=O)N(C)[C@@H](CC(C)C)C(=O)O[C@H](C)C(=O)N(C)[C@@H](CC(C)C)C(=O)O[C@H](Cc2ccccc2)C(=O)N(C)[C@@H](CC(C)C)C(=O)O[C@H](C)C(=O)N1C [Example 2-87, (3S,6R,9S,12R,15S,18R,21S,24R)-6-(4-((3-amino-1H-pyrazol-1-yl)methyl)benzyl)-18-benzyl-3,9,15,21-tetraisobutyl-4,10,12,16,22,24-hexamethyl-1,7,13,19-tetraoxa-4,10,16,22-tetraazacyclotetracosan-2,5,8,11,14,17,20,23-octaone]	0.001 to 0.01	1 to 10
CC(C)C[C@H]1C(=O)O[C@H](Cc2ccc(Cn3ccnc3C3CC3)cc2)C(=O)N(C)[C@@H](CC(C)C)C(=O)O[C@H](C)C(=O)N(C)[C@@H](CC(C)C)C(=O)O[C@H](Cc2ccc(Cn3ccnc3C3CC3)cc2)C(=O)N(C)[C@@H](CC(C)C)C(=O)O[C@H](C)C(=O)N1C [Example 6-7, (3S,6R,9S,12R,15S,18R,21S,24R)-6,18-bis[[4-[(2-cyclopropylimidazol-1-yl)methyl]phenyl]methyl]-3,9,15,21-tetraisobutyl-4,10,12,16,22,24-hexamethyl-1,7,13,19-tetraoxa-4,10,16,22-tetrazacyclotetracosane-2,5,8,11,14,17,20,23-octaone]	0.01 to 0.1	1 to 10
CCOCc1nccn1Cc1ccc(C[C@H]2OC(=O)[C@H](CC(C)C)N(C)C(=O)[C@@H](C)OC(=O)[C@H](CC(C)C)N(C)C(=O)[C@@H](Cc3ccc(Cn4ccnc4COCC)cc3)OC(=O)[C@H](CC(C)C)N(C)C(=O)[C@@H](C)OC(=O)[C@H](CC(C)C)N(C)C2=O)cc1 [Example 6-20, (3S,6R,9S,12R,15S,18R,21S,24R)-6,18-bis(4-((2-(ethoxymethyl)-1H-imidazol-1-yl)methyl)benzyl)-3,9,15,21-tetraisobutyl-4,10,12,16,22,24-hexamethyl-1,7,13,19-tetraoxa-4,10,16,22-tetraazacyclotetracosan-2,5,8,11,14,17,20,23-octaone]	0.001 to 0.01	1 to 10
CCc1nccn1Cc1ccc(C[C@H]2OC(=O)[C@H](CC(C)C)N(C)C(=O)[C@@H](C)OC(=O)[C@H](CC(C)C)N(C)C(=O)[C@@H](Cc3ccccc3)OC(=O)[C@H](CC(C)C)N(C)C(=O)[C@@H](C)OC(=O)[C@H](CC(C)C)N(C)C2=O)cc1 [Example 8-4, (3S,6R,9S,12R,15S,18R,21S,24R)-6-benzyl-18-[[4-[(2-ethylimidazol-1-yl)methyl]phenyl]methyl]-3,9,15,21-tetraisobutyl-4,10,12,16,22,24-hexamethyl-1,7,13,19-tetraoxa-4,10,16,22-tetrazacyclotetracosane-2,5,8,11,14,17,20,23-octaone]	0.01 to 0.1	1 to 10
CC(C)C[C@H]1C(=O)O[C@H](Cc2ccc(Cn3ccnc3C(C)(C)C)cc2)C(=O)N(C)[C@@H](CC(C)C)C(=O)O[C@H](C)C(=O)N(C)[C@@H](CC(C)C)C(=O)O[C@H](Cc2ccccc2)C(=O)N(C)[C@@H](CC(C)C)C(=O)O[C@H](C)C(=O)N1C [Example 8-6, (3S,6R,9S,12R,15S,18R,21S,24R)-6-benzyl-18-[[4-[(2-tert-butylimidazol-1-yl)methyl]phenyl]methyl]-3,9,15,21-tetraisobutyl-4,10,12,16,22,24-hexamethyl-1,7,13,19-tetraoxa-4,10,16,22-tetrazacyclotetracosane-2,5,8,11,14,17,20,23-octaone]	0.01 to 0.1	1 to 10
CC(C)C[C@H]1C(=O)O[C@H](Cc2ccc(Cn3ccnc3C3CC3)cc2)C(=O)N(C)[C@@H](CC(C)C)C(=O)O[C@H](C)C(=O)N(C)[C@@H](CC(C)C)C(=O)O[C@H](Cc2ccccc2)C(=O)N(C)[C@@H](CC(C)C)C(=O)O[C@H](C)C(=O)N1C [Example 8-7, (3S,6R,9S,12R,15S,18R,21S,24R)-6-benzyl-18-[[4-[(2-cyclopropylimidazol-1-yl)methyl]phenyl]methyl]-3,9,15,21-tetraisobutyl-4,10,12,16,22,24-hexamethyl-1,7,13,19-tetraoxa-4,10,16,22-tetrazacyclotetracosane-2,5,8,11,14,17,20,23-octaone]	0.001 to 0.01	1 to 10
